Legend:
DMS 273 = assay: Dose response of growth, tumor cell line; assay type: cell-based; conditions: Homo sapiens; DMS 273, small cell lung cancer; read-out: 50% Loss (50% kill)
DMS 114 = assay: Dose response of growth, tumor cell line; assay type: cell-based; conditions: Homo sapiens; DMS 114, small cell lung cancer; read-out: 50% Loss (50% kill)
Description: Indeed, 70% of the cell lines were shown not only to experience precluded growth, but cell death, when exposed to less then 100 μM of the active ingredient.

ClCc1ccc2ccc3ccc(CCl)nc3c2n1 [2,9-bis(chloromethyl)-1,10-phenanthroline]
CC50 (DMS 273): > 100 µM | CC50 (DMS 114): 7.72 µM
